Laboratory results published in PubChem BioAssay AID2305 (GlaxoSmithKline (GSK), 2010).
“And” between values parts separate entries of the source, which are not always exact repeats. Equal entries are not always repeated.

system: P. falciparum 3D7 growth, pLDH absorbance; test: blood-stage malaria parasite growth potency – strain 3D7, dose response (AID 2305)

Row | SMILES | IC50
1 | O=C(Nc1ccc(CCNCCCc2ccccc2)cc1)Nc1ccc(Cl)c(Cl)c1 | 270 nM
2 | CC(C)CNCc1ccc(-c2cccc(CN(C(=O)NCCc3ccccc3)C3CCN(Cc4ccccc4)CC3)c2)cc1 | 580 nM
3 | O=C(NCCN1CCOCC1)c1ccc(O)c(-c2cccc(C(F)(F)F)c2)c1 | 750 nM
4 | COc1cc2nc(N3CCC(CNC(=O)c4ccc(NC(=O)c5ccc(Cl)cc5)cc4)CC3)nc(N)c2cc1OC | 260 nM
5 | O=C(N[C@@H](Cc1ccccc1)C(=O)NC1CCCCC1)c1ccc(O)c(-c2ccc(Cl)c(Cl)c2)c1 | 230 nM
6 | CC(COc1ccc2c(c1)OC(C)(C)CC2c1ccccc1)NCC(O)c1cccc(Cl)c1 (stereo unspecified) | 750 nM
7 | CNCC(O)c1cc(Cl)c(Cl)cc1C (stereo unspecified) | 920 nM
8 | Oc1ccc2ncnc(Nc3ccc(OCc4cccc(F)c4)c(Cl)c3)c2c1 | 990 nM
9 | CC(CN(C)C)C(=O)Nc1cccc(-c2ccc(-c3nc4ccccc4[nH]3)s2)c1 (stereo unspecified) | 740 nM
10 | Cc1cccc2[nH]c(-c3cccc(-c4cccc(NC(=O)CCc5cnc[nH]5)c4)c3)nc12 | 550 nM
11 | O=C(Nc1ccc(Cl)c(Cl)c1)N1CCc2ccc(OCCCN3CCCCC3)cc2CC1 | 1520 nM
12 | CCCNC(=O)C1Cc2cc(OC)c(OC)cc2C2(N1)C(=O)N(Cc1cccc(OC)c1)c1ccccc12 (stereo unspecified) | 860 nM
13 | NC1=NC2(CCCC2)N(c2ccc(Cl)cc2)C(N)=N1 | 410 nM
14 | Cc1ccc(NC(=O)c2ccc(CN3CCCN(CC4CCCCC4)CC3)cc2)cc1F | 290 nM
15 | Cc1ccccc1Cn1c(CN2CCC(C(=O)NC3CC3)CC2)cc2ccccc21 | 480 nM
16 | O=C(c1cc(-c2cccs2)[nH]n1)N1CCN(S(=O)(=O)c2ccc(Cl)cc2)CC1 | 290 nM
17 | O=C(NCCc1ccc(F)cc1)c1ccc(N2CCN(c3ccncc3)CC2)nc1 | 1420 nM
18 | COc1ccc(CCNc2nc(N)c3cc(OC)c(OC)cc3n2)cc1 | 1120 nM
19 | Cc1cccc(CN2CCN(c3ncc(C(=O)NC4CC4)cc3Cl)CC2)c1 | 1310 nM
20 | O=C(Nc1cccc(CN2CCCN(Cc3ccc(O)cc3)CC2)c1)c1cccc(Cl)c1 | 910 nM
21 | COc1ccc(C2C(C(=O)Nc3cc(C)ccc3OC)c3ccccc3C(=O)N2C)cc1 (stereo unspecified) | 980 nM
22 | CN(c1cc(NC(=O)c2cccs2)ccn1)C1CCN(Cc2cccc(C#N)c2)CC1 | 1260 nM
23 | CN1CCN(c2nc(NCCc3ccc(O)cc3)nc(NCc3ccccc3-c3ccc(C(F)(F)F)cc3)n2)CC1 | 970 nM
24 | CS(=O)(=O)c1ccccc1CNC(=O)c1cccc(-c2ccc(-c3nc4ccc(C(F)(F)F)cc4[nH]3)cc2)c1 | 810 nM

Row | SMILES | IC50
25 | COc1cccc(-c2csc(C(=O)NC3CCCCN(Cc4ccc(C(C)(C)C)cc4)C3)c2)c1 (stereo unspecified) | 890 nM
26 | CC(=O)Oc1ccc(C(=O)Oc2ccccc2C#CC#N)cc1OC(C)=O | 320 nM
27 | O=C(/C=C/c1ccc(Cl)c(Cl)c1)NCCCCCN1[C@@H]2CC[C@H]1CC(c1c[nH]c3ccc(O)cc13)C2 (stereo partly specified) | 880 nM and 1000 nM
28 | Cc1[nH]c(C)c(-c2ccc(Cl)cc2)c(=O)c1I | 670 nM
29 | COC1(C)Oc2ccc3cccc([N+](=O)[O-])c3c2C1=O (stereo unspecified) | 630 nM
30 | c1ccc(CN2CCC(NCc3ccccc3-c3ccc(CNC4CCCC4)cc3)CC2)cc1 | 910 nM
31 | CCCCCC(=O)N1CCOC(CCN2CCC(c3ccccc3)CC2)(c2ccc(Cl)c(Cl)c2)C1 (stereo unspecified) | 1120 nM
32 | CC(C)C[C@H](Nc1ccc(C#N)c2ccccc12)C(=O)N[C@@H]1CCCc2ccccc21 | 760 nM
33 | O=C(/C=C/c1cccc(Cl)c1)N1CCC(C(O)CN2CCC3(CC2)CN(C(=O)/C=C/c2cccc(Cl)c2)c2ccccc23)CC1 (stereo unspecified) | 890 nM
34 | CS(=O)(=O)c1cccc(-c2ccc3oc(C(N)=O)c(NC(=O)c4cccs4)c3c2)c1 | 590 nM
35 | O=C(/C=C/c1ccc(Cl)c(Cl)c1)NCCCCCN1CCCN(C(=O)Nc2cc(Cl)nc(Cl)c2)CC1 | 790 nM
36 | COc1ccc2nccc([C@@H](O)CN3CCC(NC(=O)C(c4cc5ccccc5o4)N4CCN(c5ccccc5OC)CC4)CC3)c2c1 (stereo partly specified) | 310 nM
37 | CCN(C)CCCn1c(N(C)C)nc2cc(-n3cnc4cc(-c5ccc(Cl)cc5)sc4c3=O)ccc21 | 1090 nM
38 | Cc1cccc(C)c1CNc1ccnc2ccccc12 | 1200 nM
39 | CCOC(=O)c1ccc(NC(=O)Nc2ccc(-c3cccc(-c4nc5c(C)cccc5[nH]4)c3)cc2)cc1 | 140 nM
40 | Cc1c(Cn2nc(Cl)c(N3CCNCC3)cc2=O)cccc1NC(=O)Nc1ccc(-c2ccccc2)cc1 | 1380 nM
41 | O=C(Nc1ccc(F)cc1F)NC1CCN(CCCCCNC(=O)[C@@H]2C[C@H]2c2ccc(Cl)c(Cl)c2)CC1 | 500 nM
42 | C[C@@H](NC(C)(C)C)[C@H](O)c1ccc(Cl)c(C(F)(F)F)c1 | 740 nM
43 | Nc1nc(N)c2c(ccc3c2ccn3Cc2ccc(F)cc2)n1 | 10 nM
44 | Cc1ccc(-c2nnc(-c3ccc(C(=O)NC4CCN(Cc5ccc(C#N)cc5)CC4)cc3)o2)cc1Br | 850 nM
45 | CCCCCN1CCCC1CNS(=O)(=O)c1cccc(C(=O)Nc2cccc(C(F)(F)F)c2)c1 (stereo unspecified) | 770 nM
46 | Cc1ccccc1Nc1nc(NCCc2ccccc2)nc2ccccc12 | 1260 nM
47 | COc1cc(F)c2nccc([C@@H](O)CN3CCC(NCc4nc5c(F)cccc5[nH]4)CC3)c2c1 | 850 nM
48 | Cn1ccnc1-c1nc2ccccn2c1NCC(=O)Nc1ccccc1N1CCCCC1 | 980 nM

Row | SMILES | IC50
49 | CCCCCCCN(Cc1ccc(OC(C)(C)C(=O)OCC)cc1)C(=O)Nc1ccc(Cl)cc1OCC | 820 nM
50 | COc1cc(NCCCNC(=O)c2ccc(Cl)c(Cl)c2)nc2ccccc12 | 140 nM
51 | Cc1[nH]c(C)c(-c2ccc(Oc3cc(Cl)cc(Cl)c3)cc2)c(=O)c1Cl | 520 nM
52 | c1ccc2c(NCCOCCNc3c4ccccc4nc4ccccc34)c3ccccc3nc2c1 | 880 nM
53 | Cc1ccc(Nc2nc(NN=Cc3cccc(O)c3)nc(Nc3ccc([N+](=O)[O-])cc3)n2)cc1C | 740 nM
54 | COc1ccc(CNCCCCCCNCc2ccc(OC)c3ccccc23)c2ccccc12 | 580 nM
55 | O=C(NC1CCC(CN2CCC(c3c[nH]c4ccccc34)CC2)CC1)c1cc2ccccc2o1 (stereo unspecified) | 970 nM
56 | OC(CNCc1ccccc1OCc1ccccc1)c1cccc(I)c1 (stereo unspecified) | 420 nM
57 | CC(C)(CNC(=O)[C@@H]1CCCN(Cc2ccc(Cl)cc2)C1)c1nc(-c2ccc(Cl)c(O)c2)c(-c2ccncc2)[nH]1 | 940 nM
58 | Cc1ccc(CNC(=O)[C@H](Cc2ccccc2)Nc2cc(C)nc(NCCc3ccc(F)cc3)n2)cc1 | 980 nM
59 | O=C(C=Cc1ccc(Cl)c(Cl)c1)NCCCCCN1CCC(CCCNS(=O)(=O)c2ccc(F)cc2)CC1 | 1020 nM
60 | CCc1ccc(C2CCN(CCCCNC(=O)c3ccc(-c4ccc(C#N)cc4)cc3)CC2)c(OCCO)c1 | 940 nM
61 | CCN(CC)CCN(Cc1ccc(-c2ccc(C(F)(F)F)cc2)cc1)C(=O)c1ccc(-c2ccc(NC(=O)OC)cc2C)cc1 | 930 nM
62 | c1ccc(-c2cc(NCCCCNc3cc(-c4ccccc4)nc4ccccc34)c3ccccc3n2)cc1 | 130 nM
63 | O=C1CCCN1CCCNCc1cccc(-c2cccc(-c3nc4ccc(C(F)(F)F)cc4[nH]3)c2)c1 | 300 nM
64 | CCOc1cc(C(=O)N[C@@H](Cc2ccccc2)[C@H](O)CNC(C)(C)c2cccc(OC)c2)cc(N2CCCS2(=O)=O)c1 | 220 nM
65 | CCc1ccc(CN(CCCOc2cccc(CC(=O)NCc3cnc[nH]3)c2)Cc2ccc(-n3ccnc3)cc2)cc1 | 980 nM
66 | O=C(NCC1CN(Cc2ccc(N3CCCC3)o2)CCCO1)c1ccc2c(c1)OCO2 (stereo unspecified) | 840 nM
67 | Cc1nc(-c2cccc(Nc3nccc(NCC(O)c4cccc(C(F)(F)F)c4)n3)c2)cs1 (stereo unspecified) | 630 nM
68 | COc1ccc(CN2CCC(NCc3ccc(C(F)(F)F)cc3)CC2)cc1 | 920 nM
69 | FC(F)(F)c1ccc2nc(-c3ccc(-c4ccc(CN5CCN(c6cnccn6)CC5)cc4)cc3)[nH]c2c1 | 690 nM
70 | CCc1cn(CCCOC)c2ccc(C(=O)N[C@@H](Cc3ccccc3)[C@H](O)CNCc3cccc(C(F)(F)F)c3)cc12 | 190 nM
71 | COc1ccc(-c2cccc(NC(=O)c3cccc(Cl)c3)c2)cc1CN1CCCN(C)CC1 | 230 nM
72 | CCC[C@@H]([C@@H](CC1CCCCC1)C(=O)N[C@H](C(=O)Nc1nccs1)C(C)(C)SCCOCCOCC)N(O)C=O | 80 nM

Row | SMILES | IC50
73 | O=C(Nc1cccc(-c2ccc(-c3nc4ccc(F)cc4[nH]3)cc2)c1)c1csnn1 | 280 nM
74 | COc1cc2nccc(Nc3cc(C)cc(O)c3)c2cc1OC | 910 nM
75 | O=C(NCCc1cccc(F)c1)c1ccc(N2CCN(c3ccncc3)CC2)cn1 | 1020 nM
76 | CCOC(=O)CN1Cc2cc(NCc3ccc4ccc5nc(C)[nH]c(=O)c5c4c3)ccc2C1=O | 700 nM
77 | Cc1ccc(Cc2cnc(NCCSCc3ccc(CN(C)C)s3)[nH]c2=O)cn1 | 860 nM
78 | NC(=O)c1cccc(C(=O)Nc2cccc(-c3csc(-c4nc5ccccc5[nH]4)c3)c2)c1 | 130 nM
79 | COc1ccc(NC(=S)NC(NC(=O)CF)C(Cl)(Cl)Cl)cc1[N+](=O)[O-] (stereo unspecified) | 480 nM
80 | Cc1cc(NC(=O)c2sc3ccccc3c2O)no1 | 810 nM
81 | O=C(NCCNc1noc(-c2sccc2Br)n1)c1ccc(Cl)cc1 | 1170 nM
82 | Cc1ccc(-c2nc3cc(NC(=O)c4ccc([N+](=O)[O-])o4)ccc3o2)cc1Cl | 160 nM
83 | c1cc(CNCCc2ccncc2)cc(-c2ccc(-c3nc4ccccc4[nH]3)cc2)c1 | 150 nM
84 | c1cc(-c2ccc(CNC3CCOCC3)cc2)cc(-c2nc3ccccc3[nH]2)c1 | 770 nM
85 | Nc1ncc(-c2cccc(OCc3ccccc3)c2)cc1-c1nnc2ccc(Cl)nn12 | 1430 nM
86 | O=C(/C=C/c1cccc(Cl)c1)NC1CCC(CN2CCC(c3c[nH]c4ccccc34)CC2)CC1 (stereo unspecified) | 750 nM and 720 nM
87 | CN(C)CCOc1ccc(-c2cc(-c3ccc(Cl)c(O)c3)c(-c3ccnc(N)n3)o2)cc1 | 1320 nM
88 | Cc1cc(N(C)C2CCN(C)C2)nc(Nc2ccccc2Cl)n1 (stereo unspecified) | 750 nM
89 | c1ccc(CNc2nc(NCCc3cnc[nH]3)nc(NCc3cccc4ccccc34)n2)cc1 | 1110 nM
90 | CCCCCCn1c(Sc2ccc(C#N)c([N+](=O)[O-])c2)nnc1-c1ccc(OC)cc1 | 850 nM
91 | CCCCCCN=C(N)c1ccc(OCCCCCOc2ccc(C(N)=NCCCCCC)cc2)cc1 | 310 nM
92 | COc1ccc(CCCc2nc(N)nc(N)c2-c2ccc(Cl)cc2)cc1 | 40 nM
93 | CCCNCc1ccc(-c2ccc(CN(CCOC)C(=O)[C@H]3CCCO3)cc2)nc1 | 750 nM
94 | O=C(Nc1cccc(-c2ccc(-c3nc4ccc(C(F)(F)F)cc4[nH]3)cc2)c1)Nc1ccc(F)c(F)c1F | 260 nM
95 | O=C(N[C@@H](Cc1ccccc1)C(=O)NCCN1CCCCC1)c1ccc(O)c(-c2ccc(Cl)c(Cl)c2)c1 | 1520 nM
96 | CCc1cc(N2CCN(c3ccccc3F)CC2)nc(SCc2ccc(C(=O)NC3CC3)o2)n1 | 890 nM
